Columns and labels:
[1] = test system: KG-1 cell lines (human acute myeloid leukemia cells); experiment: AML cell (KG1) toxicity in AML-BMEC co-culture high-throughput screening assay; type: cell-based; conditions: percent toxicity to KG-1 cells normalized to DMF
Procedure: FIG. 4. Schematic of high throughput screening assay. AML cells are cultured on bone marrow derived endothelial cells. After 24 hours of exposure to compound treatment, the AML cells and endothelial cells are analyzed for viability using flow cytometry for 7-AAD and annexin. The phase contrast micrographs in the bottom portion of this figure are representative of untreated control and drug treated conditions. In the control situation, spindle shaped endothelial cells appear under the round shaped AML cells. In the drug treated conditions, some compounds disrupt the spindle shaped endothelial cells and lead to their detachment and death. […] This is optimal because of the high toxicity to the malignant cells and low toxicity to stromal cells. Stromal cell viability represents safety.
(§1) The values given for percent toxicity to KG-1 cells is normalized to DMF. To compare the average AML-LSC toxicity vs. AML total toxicity, fresh human primary leukemia bone marrow mononuclear cells were treated with single doses of compounds, 2470-23 and 2470-51, at a single time point, and the killing of the AML leukemia stem cell (LSC) population versus the total AML cell population was quantified (FIG. 1). […] Next, AML-LSC toxicity versus T lymphocyte (Jurkat) toxicity was investigated. […] The single-dose treatments of 2470-23 and 2470-51 on normal healthy blood stem cells (sourced from fresh umbilical cord blood) versus AML LSC were also compared.

[2] = test system: AML leukemia stem cell (LSC) population (CD34+CD38-CD123+); experiment: AML-LSC toxicity vs. AML total toxicity in fresh primary leukemia bone marrow mononuclear cells; type: cell-based, human; conditions: for killing of AML LSC population versus total AML cell population: single dose, single time point, FIG. 1; for depletion of leukemia stem cells: single-dose treatment, FIG. 3
Procedure: FIG. 1. Comparing average AML-LSC toxicity vs. AML total toxicity. Fresh human primary leukemia bone marrow mononuclear cells were treated with single doses of compounds 2470-23 and 2470-51 at a single time point and the killing of the leukemia stem cell (LSC) population (defined as CD34+CD38-CD123+) was quantified versus the total AML cell population.
as §1

[3] = test system: lymphoid (CD4+ Jurkat) versus myeloid (AML LSC) leukemia cells; experiment: AML-LSC toxicity vs. Jurkat toxicity; type: cell-based, human; conditions: single-dose treatment; FIG. 2
Procedure: FIG. 2. Comparison of average AML-LSC toxicity vs. Jurkat toxicity.
as §1

[4] = test system: normal healthy blood stem cells (fresh umbilical cord blood); experiment: Cord blood stem cell toxicity; type: cell-based, human; conditions: single-dose treatment; FIG. 3
Procedure: FIG. 3. Comparison of average AML-LSC toxicity vs. cord blood stem cell toxicity. The single-dose treatments of 2470-23 and 2470-51 on normal healthy blood stem cells (sourced from fresh umbilical cord blood) and AML LSC were compared.
as §1

[5] = test system: Primary human AML specimens (824, 872, 874); experiment: Viability of primary human AML specimens; type: cell-based; conditions: 24 hours at 50 ng/mL; P<0.05; FIG. 5A
[6] = test system: bone marrow cells from healthy adults; experiment: Viability of bone marrow cells from healthy adults; type: cell-based, human; conditions: FIG. 5B
alpha-enolase = molecular target: T1, alpha-enolase (Homo sapiens, UniProt P06733); experiment: Proteomic target identification (pronase protection, MS/MS); type: binding; conditions: FIG. 7A
T1 construct: endogenous in cells; host or cells: KG-1, primary AML cells (816, LPP4), CD34+ cells; lysates
T1 sequence (P06733 whole entry): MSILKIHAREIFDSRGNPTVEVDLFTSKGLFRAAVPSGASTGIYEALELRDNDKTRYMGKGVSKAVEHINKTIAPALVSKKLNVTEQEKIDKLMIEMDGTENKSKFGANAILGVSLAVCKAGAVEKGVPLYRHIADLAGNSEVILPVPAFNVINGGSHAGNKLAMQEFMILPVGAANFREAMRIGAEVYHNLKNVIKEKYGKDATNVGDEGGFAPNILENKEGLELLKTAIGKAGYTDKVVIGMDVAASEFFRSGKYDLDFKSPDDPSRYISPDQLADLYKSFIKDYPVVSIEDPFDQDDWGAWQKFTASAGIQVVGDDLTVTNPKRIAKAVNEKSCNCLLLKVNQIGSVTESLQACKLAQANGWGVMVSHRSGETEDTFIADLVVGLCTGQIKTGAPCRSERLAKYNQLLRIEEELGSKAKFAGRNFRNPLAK
Procedure: FIG. 6. This schematic illustrates the proteomics work flow in identifying protein targets for the compounds. AML cells (KG-1, AML 1:816, AML 2:LPP4) and health hematopoietic stem/progenitor cells (CD34+) were lysed and then mixed with either vehicle or a compound (e.g., 2470-51). Following compound-protein binding, pronase was used to cleave the proteins. Where the compound bound to proteins, this site was protected from pronase digestion. The peptides were then analyzed via gel-based target identification and label-free mass spectrometry.

enolase [7] = experiment: Enolase protein expression in AML cells; type: cell-based, human; conditions: FIG. 8A
Description: (§2) FIG. 8A. Enolase protein expression. […] Thus, enolase correlates with malignant transformation, but is not changed by applying compounds of the present invention. FIG. 8B. Effect of compounds on enolase enzyme activity.

enolase [8] = molecular target: enolase (Homo sapiens, UniProt P06733); experiment: Enolase enzyme activity; type: biochemical; conditions: FIG. 8B
enolase (Homo sapiens, UniProt P06733), sequence (P06733 whole entry): as above
Description: as §2

primary human AML cells = experiment: AML engraftment in NRGS mice injected with primary human AML cells; type: in vivo; conditions: 20 mg/kg IP TIW, two-week treatment, FIG. 9
Procedure: FIG. 9. […] Immunocompromised NRGS (NOD.CG-Rag1^tm1MomIl2rg^tm1Wjl (CMV-IL3, CSF2, KITLG) 1Eav/J) mice were given sub-lethal irradiation (200 cGy), followed by tail vein injection of primary human AML cells. At the end of four week, the animals were randomized into two-week treatment groups: vehicle-treated (PBS treatment control), cytarabine-treated 100 mg/kg IP TIW (positive treatment control), and 2470-51 20 mg/kg IP TIW. Bone marrows were examined for the presence of human CD45+ (green) and DAPI).

Aqueous solubility = type: physicochemical; conditions: aqueous medium
[9] = Microsomal stability, mouse; type: in vitro ADME; conditions: microsomes, read-out: Microsomal Stability, t1/2
[10] = Microsomal stability, rat; type: in vitro ADME; conditions: microsomes, read-out: Microsomal Stability, t1/2
[11] = Microsomal stability, human; type: in vitro ADME; conditions: microsomes, read-out: Microsomal Stability, t1/2
Human plasma half-life = type: in vitro ADME
CYP450 2C9 = CYP450 2C9 (Homo sapiens, UniProt P11712); experiment: CYP450 inhibition 2C9; type: in vitro ADME
CYP450 2C9, sequence (P11712 whole entry): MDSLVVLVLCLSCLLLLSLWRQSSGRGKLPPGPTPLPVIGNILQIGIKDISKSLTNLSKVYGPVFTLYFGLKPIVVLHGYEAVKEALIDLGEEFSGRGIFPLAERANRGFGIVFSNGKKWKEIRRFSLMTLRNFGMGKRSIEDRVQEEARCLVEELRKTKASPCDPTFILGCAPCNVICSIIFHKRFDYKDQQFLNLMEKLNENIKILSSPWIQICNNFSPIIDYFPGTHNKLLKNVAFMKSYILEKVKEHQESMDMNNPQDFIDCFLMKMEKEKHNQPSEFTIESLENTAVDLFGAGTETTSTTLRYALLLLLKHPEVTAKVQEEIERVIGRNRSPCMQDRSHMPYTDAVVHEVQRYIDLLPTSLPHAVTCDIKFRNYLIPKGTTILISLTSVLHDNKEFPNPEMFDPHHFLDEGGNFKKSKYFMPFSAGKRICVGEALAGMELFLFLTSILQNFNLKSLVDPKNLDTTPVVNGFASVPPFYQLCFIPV

CYP450 2D6 = CYP450 2D6 (Homo sapiens, UniProt P10635); experiment: CYP450 inhibition 2D6; type: in vitro ADME
CYP450 2D6, sequence (P10635 whole entry): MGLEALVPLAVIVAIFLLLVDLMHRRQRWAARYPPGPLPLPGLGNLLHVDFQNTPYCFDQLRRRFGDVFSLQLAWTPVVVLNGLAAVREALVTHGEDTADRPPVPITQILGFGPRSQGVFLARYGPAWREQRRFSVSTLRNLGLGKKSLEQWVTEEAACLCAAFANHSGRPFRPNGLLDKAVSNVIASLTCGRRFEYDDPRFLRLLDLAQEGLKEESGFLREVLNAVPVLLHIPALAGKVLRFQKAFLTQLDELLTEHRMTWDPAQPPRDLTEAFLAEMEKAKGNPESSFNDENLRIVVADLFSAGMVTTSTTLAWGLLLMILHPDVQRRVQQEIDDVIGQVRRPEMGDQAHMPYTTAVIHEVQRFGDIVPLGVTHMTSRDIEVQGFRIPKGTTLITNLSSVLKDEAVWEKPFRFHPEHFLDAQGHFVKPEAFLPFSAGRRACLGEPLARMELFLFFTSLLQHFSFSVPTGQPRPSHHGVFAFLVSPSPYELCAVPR

CYP450 3A4 = CYP450 3A4 (Homo sapiens, UniProt P08684); experiment: CYP450 inhibition 3A4; type: in vitro ADME
CYP450 3A4, sequence (P08684 whole entry): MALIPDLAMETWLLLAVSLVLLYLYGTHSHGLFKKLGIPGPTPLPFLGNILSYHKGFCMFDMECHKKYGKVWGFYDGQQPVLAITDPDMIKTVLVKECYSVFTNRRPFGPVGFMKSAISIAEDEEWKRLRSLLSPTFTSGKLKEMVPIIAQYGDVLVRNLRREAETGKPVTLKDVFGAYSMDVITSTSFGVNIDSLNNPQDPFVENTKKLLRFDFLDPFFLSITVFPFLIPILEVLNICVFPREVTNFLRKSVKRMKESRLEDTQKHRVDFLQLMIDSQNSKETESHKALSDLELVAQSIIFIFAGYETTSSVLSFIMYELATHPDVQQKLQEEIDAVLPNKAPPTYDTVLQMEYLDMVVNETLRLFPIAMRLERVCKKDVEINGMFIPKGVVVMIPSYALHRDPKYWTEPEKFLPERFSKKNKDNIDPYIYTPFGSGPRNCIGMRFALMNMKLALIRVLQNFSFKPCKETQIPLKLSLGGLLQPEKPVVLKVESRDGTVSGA

Plasma protein binding = type: in vitro ADME
PAMPA = type: in vitro ADME

CC(C)[C@@H](CN)NC[C@H](C)NS(=O)(=O)c1ccc(C(C)(C)C)cc1 [Compound 2470-15]
KG1 toxicity (50 μg/mL) [1]: 38.4%

CC(C)[C@@H](CN)NC[C@@H](NS(=O)(=O)c1ccc(I)cc1)C(C)C [Compound 2470-23]
KG1 toxicity (50 μg/mL) [1]: 45.9% | killing of AML LSC population versus total AML cell population [2]: selectively kills the AML LSC fraction | depletion of leukemia stem cells [2]: do deplete the leukemia stem cells | AML-LSC toxicity vs. Jurkat toxicity [3]: specificity of these compounds for AML | depletion of healthy cord blood stem cells [4]: do not deplete healthy stem cells

CC(C)C[C@H](CN)NC[C@H](CCO)NS(=O)(=O)c1ccc2ccccc2c1 [Compound 2470-40]
KG1 toxicity (50 μg/mL) [1]: 37.4%

CC(C)[C@H](CN)NC[C@H](C)NS(=O)(=O)c1ccc2ccccc2c1 [Compound 2470-49]
KG1 toxicity (50 μg/mL) [1]: 46.7%

CC(C)[C@H](CN)NC[C@H](C)NS(=O)(=O)c1ccc(C(C)(C)C)cc1 [Compound 2470-51]
KG1 toxicity (50 μg/mL) [1]: 93.2% | killing of AML LSC population versus total AML cell population [2]: selectively kills the AML LSC fraction | depletion of leukemia stem cells [2]: do deplete the leukemia stem cells | AML-LSC toxicity vs. Jurkat toxicity [3]: specificity of these compounds for AML | depletion of healthy cord blood stem cells [4]: do not deplete healthy stem cells | AML cell viability compared to vehicle-treated controls [5]: significantly reduced AML cell viability | cell viability of healthy adult bone marrow cells compared to vehicle control [6]: did not reduce cell viability | binding to alpha-enolase peptide (MS/MS) (alpha-enolase): covalently bound | enolase protein expression relative to vehicle (enolase [7]): did not change protein expression | enolase enzymatic activity (enolase [8]): reduced in a dose-dependent fashion | AML engraftment (human CD45+ in bone marrow) (primary human AML cells): significantly reduced AML engraftment | solubility (Aqueous solubility): > 100 µM | half-life [9]: 8 min | half-life [10]: 9 min | half-life [11]: 33 min | half-life (Human plasma half-life): > 200 min | IC50 (CYP450 2C9): > 20 µM | IC50 (CYP450 2D6): 10.8 µM | IC50 (CYP450 3A4): > 20 µM | fraction unbound (Plasma protein binding): 0.195 | PAMPA (PAMPA): 10 nm/s | PAMPA (grade in words) (PAMPA): (moderate)

Reference: US11014876B2, “Polyamine sulfonamides and uses thereof” (University of Florida Research Foundation, Inc., priority 2015, dated 2021)
